{"source": "patent US8609413B2", "about": "“Neurons, astrocytes and oligodendrocytes differentiated from a mammalian pluripotent or neural stem cells exposed to a pyridine deriviative” (Research Development Foundation, priority 2007, dated 2013)", "system": "H1 human ES cells", "experiment": "Neuronal differentiation of human ES cells, differentiation protocol 2 (clinical grade protocol)", "format": "cell-based", "procedure": "Undifferentiated human H1 ES cells were cultured on irradiated mouse embryonic fibroblasts (MEF). To carry out neuronal differentiation, ES cells were mechanically dissociated into small aggregates (50-300 cells) and cultured in suspension on low-attachment six-well plates. For the first 4 days, the cells were cultured in neuronal induction medium (DMEM F-12 (Gibco), N2 supplement (Gibco), penicillin and streptomycin (Gibco), phenazopyridine 3:M). Then the medium was changed to simple neuronal proliferation medium (DMEM F-12, N2 supplement, 20 ng/ml human recombinant bFGF, penicillin and streptomycin, phenazopyridine 3:M) for 2 additional days. Subsequently, 15-20 6-day old cell aggregates were plated on polyornithine/laminin-coated six-well plates and maintained in simple neuronal proliferation medium for 7 days. Cells were then mechanically dissociated and replated in N2 medium (DMEM high glucose (Gibco), 10 ng/ml human recombinant bFGF (Gibco), N2 supplement (Gibco), penicillin and streptomycin (Gibco)) at a density of 20,000 cells per cm^2 on polyornithine/laminin-coated six-well plate. Cells were passaged when they reached 80-90% confluency, and were maintained in the same culture conditions for 2 additional weeks. Stock phenazopyridine (Microsource Discovery Inc.) was prepared by diluting phenazopyridine powder in DMSO (Sigma-Aldrich) at a concentration of 6 mM. The stock solution was diluted at 1:2000 in cell culture media to obtain a final concentration of 3:M Each of the components of the neuronal induction medium, the simple neuronal proliferation medium and the N2 medium can be replaced with clinical grade equivalents. Therefore, the foregoing procedure of carrying out neuronal differentiation is referred to herein as the “clinical grade protocol.”\nThe effects of phenazopyridine on ES cell differentiation were investigated using the clinical grade-compatible protocol. The first step involved generation of spheres of cells grown in suspension for 6 days, followed by replating on polyornithine/laminin coated plastic. One week later, cells were passaged at 2×10^4 cells/cm^2 on polyornithine/laminin coated plastic, and during the following two weeks cells were passaged when they reached 80-90% confluency. Cells were treated with either DMSO (1:2000) or with phenazopyridine (PAP) at 3:M with equivalent final DMSO concentration throughout the 4 week period.\nTwo different protocols were used to induce neuronal differentiation of human ES cells. In the first protocol, human ES cells were mechanically dissociated into small aggregates and plated on laminin/polyornithine coated six-well plates. Cells were cultured 2 weeks in human SR medium (DMEM F-12 supplemented with 15% knockout serum (Gibco), non-essential amino acids, penicillin and streptomycin), followed by 4 weeks in N2 medium. Compounds were added throughout these first 6 weeks. Subsequently, cells were mechanically dissociated and replated on polyornithine/laminin-coated 6 well plates. Throughout the text, this first differentiation protocol will be referred to as “differentiation protocol 1”. The second differentiation protocol was derived from previously described differentiation conditions (Nat et al., 2007). In the second differentiation protocol, undifferentiated human ES cells were mechanically dissociated into small aggregates and cultured in suspension on low-attachment six-well plates. For the first 4 days, they were cultured in neuronal induction medium (DMEM F-12, N2 supplement, penicillin and streptomycin), which was changed to simple neuronal proliferation medium (DMEM F-12, N2 supplement, 20 ng/ml bFGF, penicillin and streptomycin) for 2 additional days. Subsequently, aggregates were plated on polyornithine/laminin-coated six-well plates and maintained in simple neuronal proliferation medium for 7 days. Cells were then mechanically dissociated and replated in N2 medium at a density of 2×10^4 cells per cm^2 for two additional weeks.", "key": {"[1]": {"details": "3 μM, four weeks of differentiation"}}, "note": "Entries after “also recorded” stand apart in the source; their conditions may differ."}
{"smiles": "Nc1ccc(/N=N/c2ccccc2)c(N)n1", "note": "[phenazopyridine]", "values": [{"measurement": "dissociation after mechanical passaging", "setting": "3 μM vs DMSO", "result": "could easily be dissociated into single cells"}, {"measurement": "percentage of living single cells by trypan blue exclusion (survival of dissociated cells)", "setting": "3 μM vs DMSO, at passaging at different time points", "result": "promotes survival of dissociated cells"}, {"measurement": "sphere morphology after one week of differentiation", "setting": "3 μM vs DMSO, phase contrast", "result": "No apparent difference; also recorded: morphologically indistinct"}, {"measurement": "sphere morphology at two weeks of differentiation", "setting": "3 μM vs DMSO, phase contrast", "result": "developed into big areas of monolayer surrounding the plated spheres; also recorded: developed bigger areas of monolayer at their periphery"}, {"measurement": "neuronal marker phenotype by immunostaining", "setting": "3 μM, after four weeks of differentiation", "result": "Virtually all cells were nestin, Sox 1 and vimentin-positive, expressed β3-tubulin and Pax6 at low levels, and were negative for musashi"}, {"measurement": "cells nestin-positive with low levels of β3-tubulin (early neuronal precursors)", "setting": "[1]", "result": "approximately 98%"}, {"measurement": "non-neural cells (nestin and β3-tubulin negative) or differentiated neurons (β3-tubulin only)", "setting": "[1]", "result": "no non-neural cells or differentiated neurons were observed"}, {"measurement": "mitotic figures and PCNA-positive cells in monolayer area", "setting": "3 μM, two weeks, vs DMSO", "result": "many mitotic figures and PCNA-positive cells"}]}
